This note sets out measurements from patent US8470844B2, “Imidazoacridinone derivative compounds and methods for their use” (Technion Research & Development Foundation Limited, priority 2008, dated 2013).

One data set deals with A549/K1.5 cells. The experiment in a line: MTT cytotoxicity assay, ABCG2-overexpressing A549/K1.5 cells. The class given is cell-based, Human. The following applies: for resistance of A549/K1.5 cells (in words): versus parental A549 cells. The procedure:
(§1) Tissue culture: Human non-small cell lung cancer A549 cells and T-cell leukemia CCRF-CEM cells were grown under monolayer conditions or up to a maximal density of 10^6 cells/ml (for CCRF-CEM cells) in RPMI-1640 medium (GIBCO) supplemented with 10% fetal calf serum, 2 mM glutamine, 100 μg/ml penicillin and 100 μg/ml streptomycin (Biological Industries, Beth-Haemek, Israel) in a humid atmosphere of 5% CO2. Drug resistant A549/K1.5 cells with ABCG2 overexpression were maintained under a continuous drug selection with 1.5 μM C-1305. Bram, E. E., et al., (2007) Biochem Pharmacol 74(1), 41-53.
(§2) Cytotoxicity and growth inhibition assays: The cytotoxic activity of the various IA antitumor agents was determined using the MTT assay. Poindessous, V., et al., (2003) Clin Cancer Res 9(7), 2817-2825.
(§3) Exponentially growing cells were seeded at 5×10^3 cells/well in 24-well plates (2 ml medium/well). Following an overnight incubation, cells were exposed to different drug concentrations for 96 hours. Cellular viability was determined by adding the tetrazolium salt MTT for 4 h at 37° C., followed by solubilization of the intracellular precipitated formazan in 1 ml DMSO and absorbance was determined by a microplate reader (ASYS Hitech GmbH, Austria). Drug concentrations required to inhibit cell growth by 50% (IC50) compared with untreated controls were determined from the curves of survival versus drug concentrations using the SlideWrite software (Advanced Graphics Software, Inc., Encinitas, Calif.). Resistance folds (RF) were calculated by dividing the IC50 value of the resistant cells by that of the parental cell line. Values presented are means of at least three independent experiments, each performed in duplicates.
Quantitative evaluation of ABCG2 interaction with various IA derivatives: The extent of ABCG2-mediated resistance was expressed using the Resistance Fold (RF) parameter representing the ratio between the IC50 values of the resistant cells and parental cells. Likewise, ABCG2-dependent differential accumulation of IAs in ABCG2-overexpressing A549/K1.5 cells was compared using the ratio of IA accumulation in the presence or absence of the potent ABCG2 inhibitor FTC. This was termed the FTC-dependent Accumulation Fold (AF) and was determined for each IA at a constant IA concentration of 10 μM.

In another data set the test system is A549 cells. In words: MTT cytotoxicity assay, parental A549 cells. The class given is cell-based, Human. The conditions noted are these: 96 hours exposure, mean of at least three experiments. The procedure: as §1, §2, §3
Background: Tetrazolium assays rely on reduction of a dye to a coloured formazan, in cell work by metabolically active cells.

For the next data set, the target named is T1, ABCG2 (A549/K1.5 cells) (Homo sapiens, UniProt Q9UNQ0).
T1 construct: Drug resistant A549/K1.5 cells with ABCG2 overexpression were maintained under a continuous drug selection with 1.5 μM C-1305; endogenous in cells; host or cells: A549/K1.5 (C-1305-selected subline of human non-small cell lung cancer A549)
T1 sequence (Q9UNQ0 1-655): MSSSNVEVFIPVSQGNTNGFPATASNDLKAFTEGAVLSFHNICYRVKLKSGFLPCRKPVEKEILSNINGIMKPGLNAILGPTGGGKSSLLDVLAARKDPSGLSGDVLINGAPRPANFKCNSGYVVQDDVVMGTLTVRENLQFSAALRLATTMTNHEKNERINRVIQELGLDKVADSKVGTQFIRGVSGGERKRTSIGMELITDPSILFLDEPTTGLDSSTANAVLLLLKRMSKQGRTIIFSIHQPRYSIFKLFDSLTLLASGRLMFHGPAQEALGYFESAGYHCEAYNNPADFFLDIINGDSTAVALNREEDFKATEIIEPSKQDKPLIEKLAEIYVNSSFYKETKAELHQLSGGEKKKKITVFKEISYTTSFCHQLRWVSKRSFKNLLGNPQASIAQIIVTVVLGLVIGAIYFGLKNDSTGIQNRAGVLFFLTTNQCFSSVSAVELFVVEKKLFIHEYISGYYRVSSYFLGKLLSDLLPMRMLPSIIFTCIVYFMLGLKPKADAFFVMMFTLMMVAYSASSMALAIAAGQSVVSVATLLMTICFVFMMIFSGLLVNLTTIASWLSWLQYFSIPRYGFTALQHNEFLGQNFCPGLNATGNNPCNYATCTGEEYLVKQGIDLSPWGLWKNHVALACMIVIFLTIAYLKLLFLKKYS
The experiment in a line: Fluorescence microscopy of nuclear accumulation of IAs in A549/K1.5 cells. The following applies: 10 μM IA, 1 hr. Format: cell-based. The procedure: In immunofluorescence microscopy of plasma membrane targeting of ABCG2 and nuclear accumulation of IAs, cells (1×10^4/well) were seeded in 24-well plates (1 ml medium/well) and incubated for 2 days, following which some wells were supplemented with 10 μM IA-containing medium±5 μM FTC and incubated for 1 h at 37° C. Cells were then washed twice with ice-cold PBS containing 0.1% BSA and blocked for 10 min at 4° C. with PBS containing 5% BSA. Cells were then washed once with ice-cold PBS containing 0.1% BSA and incubated for 30 min at 4° C. with a Phycoerythrin-conjugated, affinity-purified 5D3 mouse anti-human ABCG2 monoclonal antibody (1:100; eBioscience). Unspecific fluorescence was determined using cells that were incubated only with a secondary Phycoerythrin (PE)-conjugated goat anti-mouse IgG (1:200; Jackson Immunoresearch Labs, West Grove, Pa.). Cells were then washed twice and subjected to fluorescence microscopy using a DMIRE2 fluorescence microscope equipped with a DC300FX camera (Leica Microsystems, Wetzlar, Germany).
In order to exclude the possibility that differential subcellular accumulation of IA derivatives is the basis of the observed difference in cytotoxicity and cellular fluorescence, A549/K1.5 cells were incubated with 10 μM of selected IA derivatives from both group A and B in the presence or absence of FTC and subjected to fluorescence microscopy.

Broadly, the IC50 is the concentration that inhibits the measured activity by half. As for `CCN(CC)CCNc1ccc2ncn3c4ccc(O)cc4c(=O)c1c23` [C-1311], the IC50 amounted to 2.34 ± 0.05 µM in the data set with A549/K1.5 cells (ABCG2-overexpressing A549/K1.5 cells, 96 hours exposure, MTT) and 0.27 ± 0.012 µM in the data set with A549 cells. Besides, the “RF (resistance fold)” value in the data set with A549/K1.5 cells (IC50 of A549/K1.5 cells divided by IC50 of parental A549 cells) came out at 8.70. In addition, the “resistance of A549/K1.5 cells (in words)” value in the data set with A549/K1.5 cells is given as “prominent resistance”; in the data set with A549/K1.5 cells (listed as Symadex), “marked drug resistance”. Also, the “intracellular accumulation (fluorescence microscopy)” value at ABCG2 (A549/K1.5 cells) (absence of FTC) is “no apparent intracellular accumulation”. At ABCG2 (A549/K1.5 cells) (presence of 5 μM FTC), the “nuclear accumulation (fluorescence microscopy)” value is “marked restoration of nuclear accumulation”.
